Nine compounds from PubChem BioAssay (NCI) can be followed below.

Several values for one entry are separate records, joined by “and”; a condition that tells them apart may be missing. Equal entries are not always repeated.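 Grown in 96-well plates, cells were treated for 48 hours with each compound at five concentrations. Insufficient inhibition: endpoint recorded as highest concentration tested. At the GI50, growth is halved. The concentration for full growth arrest is given as TGI.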

As a reminder, the GI50 is the concentration that inhibits growth by half. Broadly, the TGI is the concentration giving total growth inhibition. Read a high TGI as less potent growth arrest.

Among the test systems are LOX IMVI melanoma; HOP-92 NSCLC; HT29 colon; RPMI-8226 leukemia; UACC-257 melanoma; OVCAR-8 ovarian; EKVX NSCLC; SN12C renal; SF-539 CNS; MALME-3M melanoma.
Common to all, as to test: DTP human tumour cell line panel, 48 h

Take `COc1ccc(N(C)c2nc(Cl)nc3cnn(C)c23)cc1`: the concentration for 50% growth inhibition (GI50) in the assay with LOX IMVI melanoma was less than 11 nM; in the assay with HOP-92 NSCLC it was less than 10 nM; in the assay on HT29 colon, less than 10 nM; in the assay with RPMI-8226 leukemia it was less than 17.7 nM; with UACC-257 melanoma it was 29.8 µM; with OVCAR-8 ovarian, 19.2 nM. Further, the GI50 with EKVX NSCLC was less than 17.8 nM; with SN12C renal it was less than 20.3 nM; in the assay on SF-539 CNS, less than 10 nM. The TGI in the assay with LOX IMVI melanoma is greater than 100 µM; in the assay with HOP-92 NSCLC, 7.95 µM; with HT29 colon, greater than 100 µM; in the assay on RPMI-8226 leukemia, greater than 100 µM; in the assay with UACC-257 melanoma it was greater than 100 µM; in the assay with OVCAR-8 ovarian, greater than 100 µM. For the same compound, the concentration for total growth inhibition (TGI) in the assay on EKVX NSCLC, in the assay on SN12C renal and in the assay on MALME-3M melanoma was greater than 100 µM each time.

Consider `COc1cc(/C=C/C(=O)c2c(C)nc3ccccc3c2C)ccc1OCCCN1CCN(C(=O)c2ccco2)CC1`, for which the GI50 is 7750 nM in the assay with LOX IMVI melanoma; 7710 nM in the assay with HT29 colon; 1920 nM with RPMI-8226 leukemia; 3.28 µM in the assay on UACC-257 melanoma; 8430 nM in the assay on OVCAR-8 ovarian; 7760 nM with EKVX NSCLC. In addition, the GI50 in the assay with SN12C renal was 11000 nM; in the assay on SF-539 CNS, 14400 nM; with MALME-3M melanoma it was 3430 nM. Besides, the TGI came to 21.5 µM in the assay with LOX IMVI melanoma; 4.74 µM in the assay on HOP-92 NSCLC; 23.2 µM in the assay with HT29 colon; 11.9 µM with RPMI-8226 leukemia; 16.1 µM with UACC-257 melanoma; 42.4 µM in the assay with OVCAR-8 ovarian. Moreover, the TGI in the assay on EKVX NSCLC came to 42.6 µM; in the assay with SN12C renal, 28.7 µM; in the assay on SF-539 CNS, 27.5 µM; with MALME-3M melanoma, 18.2 µM.

Consider `Cc1ccc(OCC2OC(n3cnc4c(Br)nc(Br)nc43)CC2Oc2ccc(C)cc2)cc1` (configuration not stated), for which the GI50 is 1420 nM in the assay on LOX IMVI melanoma; 1160 nM with HOP-92 NSCLC; 2320 nM in the assay on HT29 colon; 7520 nM in the assay on RPMI-8226 leukemia; 10.3 µM with UACC-257 melanoma; 18200 nM with OVCAR-8 ovarian. Moreover, the GI50 is 1520 nM in the assay on EKVX NSCLC, 9930 nM in the assay on SN12C renal, 466 nM in the assay with SF-539 CNS and 6500 nM in the assay on MALME-3M melanoma. Further, the TGI in the assay on LOX IMVI melanoma is 2.47 µM and 3.67 µM; in the assay with HOP-92 NSCLC, 2.55 µM and 5.36 µM; with HT29 colon, 8 µM and 7.2 µM; in the assay with RPMI-8226 leukemia, 28.7 µM and > 71.3 µM; with UACC-257 melanoma, 20.4 µM and 21.3 µM; with OVCAR-8 ovarian, 42.7 µM and 14.3 µM. The TGI in the assay on EKVX NSCLC was 3.25 µM and 4.15 µM; in the assay on SN12C renal, 22.9 µM and 14.2 µM; with SF-539 CNS, 10.2 µM and 15.6 µM; in the assay with MALME-3M melanoma, 16.3 µM and 21.6 µM.

Regarding `COc1cc(/C=C2/C(=O)N(C(=O)OCc3ccccc3)C(Cc3cc(OC)c(OC)c(C)c3OC)C(=O)N2Cc2ccccc2)c(OC)c(C)c1OC` (configuration not stated), the TGI with LOX IMVI melanoma, in the assay with HOP-92 NSCLC, with HT29 colon, in the assay with RPMI-8226 leukemia, in the assay on UACC-257 melanoma and in the assay on OVCAR-8 ovarian was greater than 100 µM throughout. In addition, the total growth inhibition concentration (TGI) in the assay with EKVX NSCLC, in the assay with SN12C renal, in the assay with SF-539 CNS and with MALME-3M melanoma was greater than 100 µM throughout.

Consider `CN(C)CCOC(=O)Nc1nc2ccc(Sc3ccccc3)cc2[nH]1`, for which the GI50 with LOX IMVI melanoma is 4260 nM; in the assay with HOP-92 NSCLC, 1330 nM; with HT29 colon it was 3570 nM; with RPMI-8226 leukemia it was 3720 nM; in the assay on UACC-257 melanoma, 13.4 µM; with OVCAR-8 ovarian, 4260 nM. Also, the GI50 with EKVX NSCLC is 5750 nM; in the assay with SN12C renal it was 5230 nM; in the assay on SF-539 CNS it was 2270 nM; in the assay with MALME-3M melanoma it was 4930 nM. Further, the concentration for total growth inhibition (TGI) in the assay on LOX IMVI melanoma came to 15.9 µM; with HOP-92 NSCLC it was 6.73 µM; in the assay with HT29 colon, 10.7 µM; in the assay on RPMI-8226 leukemia, 17.9 µM; with UACC-257 melanoma it was 29.4 µM; with OVCAR-8 ovarian, 26.8 µM. The TGI in the assay with EKVX NSCLC amounted to 22.7 µM; in the assay on SN12C renal it was 27.5 µM; with SF-539 CNS it was 5.85 µM; in the assay with MALME-3M melanoma it was 19.5 µM.

For the compound `COc1ccc(/C=C2\c3cc(OC)c(OC)c(OC)c3CC[C@@H]2O)cc1F`, the GI50 in the assay on LOX IMVI melanoma was 395 nM; in the assay with HOP-92 NSCLC it was 25000 nM; with HT29 colon, 1360 nM; with RPMI-8226 leukemia, 1820 nM; with UACC-257 melanoma, greater than 100 µM; in the assay on OVCAR-8 ovarian, 598 nM. Moreover, the GI50 in the assay on EKVX NSCLC was 823 nM; in the assay with SN12C renal, 949 nM; in the assay with SF-539 CNS, 272 nM; in the assay on MALME-3M melanoma, 261 nM. Moreover, the TGI in the assay on LOX IMVI melanoma is 48.6 µM; in the assay on HOP-92 NSCLC it was greater than 100 µM; in the assay on HT29 colon it was 13.4 µM; in the assay with RPMI-8226 leukemia, greater than 100 µM; in the assay on UACC-257 melanoma, greater than 100 µM; in the assay on OVCAR-8 ovarian, 93.4 µM. The TGI in the assay on EKVX NSCLC was greater than 100 µM; in the assay with SN12C renal, greater than 100 µM; with SF-539 CNS, 0.917 µM; in the assay on MALME-3M melanoma it was greater than 100 µM.

Consider `O=[N+]([O-])c1cc2c([N+](=O)[O-])cccc2o1`, for which the concentration for total growth inhibition (TGI) with LOX IMVI melanoma was greater than 100 µM; with HOP-92 NSCLC, 36 µM; in the assay on HT29 colon, 66.6 µM; in the assay on RPMI-8226 leukemia it was 11.4 µM; with UACC-257 melanoma it was 21.8 µM; in the assay on OVCAR-8 ovarian, 38.8 µM. The TGI in the assay on EKVX NSCLC amounted to 6.25 µM; in the assay with SN12C renal, 27.9 µM; in the assay on SF-539 CNS it was 6.67 µM; in the assay with MALME-3M melanoma, 30.1 µM.

With `C=C1C(=O)O[C@H]2[C@H]1CC/C(COC(=O)NCCCCCCCCNC(=O)OC/C1=C/CC[C@@]3(C)O[C@H]3[C@H]3OC(=O)C(=C)[C@@H]3CC1)=C\CC[C@@]1(C)O[C@@H]21`, the GI50 in the assay on LOX IMVI melanoma is 178 nM; in the assay on HOP-92 NSCLC, 177 nM; in the assay with HT29 colon it was 228 nM; with RPMI-8226 leukemia, 250 nM; in the assay with UACC-257 melanoma, 0.848 µM; in the assay with OVCAR-8 ovarian, 326 nM. The GI50 in the assay with EKVX NSCLC was 1190 nM; in the assay with SN12C renal it was 264 nM; in the assay with SF-539 CNS, 235 nM; in the assay with MALME-3M melanoma, 199 nM. Besides, the concentration for total growth inhibition (TGI) turned out to be 0.368 µM with LOX IMVI melanoma; 0.551 µM in the assay with HOP-92 NSCLC; 0.554 µM in the assay with HT29 colon; 0.745 µM in the assay with RPMI-8226 leukemia; 2.82 µM in the assay with UACC-257 melanoma; 1.24 µM with OVCAR-8 ovarian. Besides, the TGI stood at 2.44 µM in the assay on EKVX NSCLC, 0.849 µM with SN12C renal, 0.599 µM with SF-539 CNS and 0.43 µM in the assay on MALME-3M melanoma.

Turning to `FC(F)(F)c1cc(Nc2ccc3cc(OCCCN4CCOCC4)ccc3n2)ccc1Cl`, the GI50 is 1530 nM in the assay on LOX IMVI melanoma; 1150 nM in the assay on HOP-92 NSCLC; 1590 nM in the assay on HT29 colon; 1110 nM in the assay with RPMI-8226 leukemia; 1.53 µM in the assay on UACC-257 melanoma; 2870 nM in the assay with OVCAR-8 ovarian. Also, the GI50 in the assay with EKVX NSCLC is 2300 nM; with SN12C renal, 2960 nM; with SF-539 CNS, 1750 nM; in the assay with MALME-3M melanoma, 1670 nM. For the same compound, the TGI with LOX IMVI melanoma turned out to be 2.99 µM; in the assay with HOP-92 NSCLC, 2.97 µM; in the assay on HT29 colon, 3.16 µM; in the assay on RPMI-8226 leukemia it was 6.61 µM; in the assay with UACC-257 melanoma it was 3.32 µM; in the assay with OVCAR-8 ovarian, 10 µM. In addition, the TGI amounted to 6.21 µM in the assay with EKVX NSCLC, 12.9 µM in the assay with SN12C renal, 3.73 µM in the assay on SF-539 CNS and 4.34 µM with MALME-3M melanoma.
